Results reported in US20230114207A1, “THE COMBINATION OF CYCLIN DEPENDENT KINASE 7 INHIBITOR AND IMMUNOTHERAPY FOR TREATMENT OF CANCER” (Dana-Farber Cancer Institute, Inc., priority 2019, published 2023).

Tests used:
[1] = system: CDK1 and CDK2 T-loop phosphorylation; experiment: Western blotting of CDK1 and CDK2 T-loop phosphorylation in SCLC lines; assay type: cell-based, mouse, human; details: representative panel of SCLC lines, 24 hours; 'as low as'
Experimental: Cells in culture were collected by centrifuging at 1,500 rpm and then washed with ice-cold PBS twice to completely remove residual medium. RIPA lysis buffer (Thermo Fisher Scientific, Cat #89900) supplemented with Halt™ Protease and Phosphatase Inhibitor Cocktail (Thermo Fisher Scientific, Cat #78440) was added to cell pellets to extract protein. Protein concentrations in lysates were measured by Pierce™ BCA Protein Assay Kit (Thermo Fisher Scientific, Cat #23225) and followed by the addition of SDS loading buffer (6×) and heated at 95° C. for 5 min. Equal amount of protein samples was subjected to 4-20% gradient gel SDS-PAGE and transferred to a nitrocellulose membrane (Bio-Rad, Cat #1704271). The membrane was blocked in Odyssey® Blocking Buffer (LI-COR, Cat #927-50003) at room temperature for 1 hour and incubated with appropriate antibodies at 4° C. overnight (Key Resources Table). Antibodies were diluted in TBST (TBS with 0.1% Tween) with 20% LI-COR Odyssey Blocking Buffer. On the next day, the membrane was washed with TBST (TBS with 0.1% Tween) four times and incubated with appropriate secondary antibodies (LI-COR, anti-Rabbit, Cat #925-32213; anti-Mouse, Cat #925-68072) at room temperature for 1 hour. Membranes were imaged using the LI-COR Odyssey® Imaging System.

RP orthotopic model = experiment: Treatment study in RP orthotopic SCLC model; assay type: in vivo, mouse
Experimental: All animal studies were reviewed and approved by the Institutional Animal Care and Use Committee (IACUC) at the New York University Langone Health (NYULH) and Dana-Farber Cancer Institute (DFCI). From 6 weeks of age, mice were induced with adenovirus-Cre recombinase (Ad-Cre) by intratracheal intubation to allow cre-lox-mediated recombination of floxed Rb1, p53 and p130 alleles. For syngeneic orthotopic models, ultrasound-guided transthoracic injection was performed using 200,000 RPP631, RP or RPP-MYC cells in 30 μL PBS directly into the lung of 6 to S-week-old C57BL/6 (Jackson Laboratory, Stock No: 000664). For OT-IT cell assay, OT-I mice were purchased from the Jackson Laboratory (Stock No: 003S31). Both males and females mice were used and all mice were maintained in accordance with the respective NYULH and DFCI on the care, welfare, and treatment of laboratory animals. […]
Animals were anesthetized with isoflurane to perform MRI of the lung field using BioSpec USR70/30 horizontal bore system (Bruker) to scan 24 consecutive sections. Tumor volumes within the whole lung were quantified using 3-D slicer software to reconstruct MRI volumetric measurements as described previously. […]

RPP631 and DMS79 cells = experiment: Cell cycle analysis (propidium iodide flow cytometry); assay type: cell-based, mouse, human
Experimental: Cells were seeded in 6-well plates (0.5-1×10^6 cells/well) in media and treated with YKL-5-124 at indicated concentrations and time points. Cells were collected by centrifugation, washed in cold PBS and resuspended in 1 ml of 80% EtOH in PBS and stored overnight at −20° C. Cells were again collected by centrifugation and washed 3× with cold PBS. Hereafter cells were resuspended in PBS containing: 0.1% Triton X-100, 25 μg/ml Propidium Iodide (PI) and 0.2 mg/ml RNase A and incubated for 45 min at 37° C. After incubation, cells were placed at 4° C. until ready for analysis with flow cytometry. Cells were gated for PI staining and cell accumulation in G1, S and G2/M were calculated using ModFit LT software.

[2] = system: TNFα, CXCL9 and CXCL10 in BALF; experiment: Luminex analysis of murine BAL fluid; assay type: in vivo, mouse; details: after 7-day treatment
Experimental: Mouse lung bronchoalveolar lavage (BAL) was performed by intratracheal injection of 2 ml of sterile PBS followed by collection by aspiration. TNFα, CXCL9 and CXCL10 levels were measured using mouse Cytokine/Chemokine 32-plex Assay (MILLIPLEX, Millipore) on Luminex® SD system (Luminex). Concentrations (pg/ml) of each protein were derived from 5-parameter curve fitting models according to the manufacturer's instructions.

CDK7-Cyclin H complexes = experiment: Competitive pulldown assay (Bio-THZ1), Cyclin H; assay type: cell-based, mouse, human; details: SCLC cells (RPP631, DMS79) treated 6 hours
Experimental: Bio-THZ1 pulldown experiments followed by western blotting of enriched proteins was performed as described in Kwiatkowski, et al., Nature, 2014, 511, 616-620. Briefly, cells were treated with YKL-5-124 or DMSO for 6 hr (in vitro) or 72 hr (in vivo). Following treatment, cells were washed twice with cold PBS and then lysed in the following lysis buffer: 50 mM TrisHCI pH 8.0, 150 mM NaCl, 1% NP-40, 5 mM EDTA, 1 mM DTT, and protease/phosphatase cocktails. Following clearance, lysates were treated with biotinylated THZ1 for pulldown overnight at 4° C. Lysates were further incubated at room temperature for 3 hr to increase the efficiency of covalent bond formation. Lysates were then incubated with streptavidin agarose for pulldown for an additional 2-3 hr at 4° C. Agarose beads were washed 5 times with lysis buffer and then boiled in 2×SDS at 95° C. SDS-page resolved precipitated proteins were probed for the indicated proteins.

[3] = In vivo toxicity evaluation in C57BL/6 mice
Experimental: For evaluation of in vivo toxicity of YKL-5-124, a dose-escalating study from 2.5 mg/kg to 15 mg/kg q.d. five times/week via intraperitoneal injection (i.p.) was tested in C57BL/6 mice. In vivo toxicities including body weight and blood cell counts including platelet, red blood cells and white blood cells were monitored. Similarly, a separate cohort was used to evaluate in vivo toxicity of combining YKL-5-124 and anti-PD-1 in C57BL/6 mice. For treatment studies, mice were evaluated by MRI imaging (Preclinical Imaging Laboratory, NYULH) to quantify lung tumor burden before for randomization and after drug treatment for efficacy evaluation. Mice were treated with either vehicle and isotype IgG (Control), anti-PD-1 200 μg/mouse (clone 29F.1A12), YKL-5-124 10 mg/kg, or combined anti-PD-1 and YKL-5-124 (Combo). YKL-5-124 was administered daily from Monday to Friday, and PD-1 antibody was administered three times a week (Monday, Wednesday, and Friday). For chemotherapy, cisplatin (5 mg/kg) was given on Day 1 and etoposide (10 mg/kg) on Day 1, 2, 3 every seven days per cycle for three cycles.

C=CC(=O)Nc1ccc(C(=O)Nc2n[nH]c3c2CN(C(=O)N[C@H](CN(C)C)c2ccccc2)C3(C)C)cc1 [YKL-5-124]
concentrations robustly inhibiting CDK1 and CDK2 T-loop phosphorylation [1]: ≥ 50 nM
added median survival benefit (RP orthotopic model; RP model, vs control): approximately 30 days
tumor response / tumor growth (MRI tumor volume) (RP orthotopic model; RP orthotopic model): notably delayed tumor growth
cells in G1 phase (RPP631 and DMS79 cells; 72 hours): significant accumulation
cells in S phase (RPP631 and DMS79 cells; 72 hours): corresponding loss
percentage of cells in G2/M phase (RPP631 and DMS79 cells; concentrations up to 500 nM): not significantly changed
TNFα, CXCL9 and CXCL10 in BALF [2]: pronounced increase
block of Cyclin H pulldown (CDK7-Cyclin H complexes): efficiently prevented
well tolerated dose ([3]; C57BL/6, mouse, in vivo, ip): up to 10 mg/kg
body weight and blood counts ([3]; dose up to 10 mg/kg): no significant change
